Laboratory results reported in patent US9315546B2, “Growth hormone secretatogue receptor antagonists and uses thereof” (The Administrators of the Tulane Educational Fund, priority 2010, dated 2016).
Where “and” joins values, the source holds several entries; their conditions need not be identical. Equal entries are not always repeated. Where a SMILES comes first, the peptide text is derived from it. Where no end group is shown, it is not given here. [ ]: non-standard residue; d: D form. d2Nal = N[C@H](Cc1ccc2ccccc2c1)C(=O)O

Key:
[1] = target: T1, human ghrelin receptor type 1a (GHS-R1a) (Homo sapiens, UniProt Q92847); experiment: Receptor binding, displacement of radiolabelled ghrelin, HEK-293 cell membranes; conditions: for % INH, Ghrelin/GHS Antagonist Receptor Activity: concentration not given
T1 construct: expressed in transfected cells; host or cells: HEK-293 cells (membranes)

[2] = target: T2, Ghrelin/GHRP/GHS Receptor (Rattus norvegicus, UniProt O08725); experiment: GH release from isolated pituitary glands, pituitary incubation method; format: cell-based
Protocol: Hormonal activities were obtained from in vitro studies using pituitaries of 20 day old CD-1 strain Sprague Dawley female rats. Two pituitaries were incubated for a total of 4-6 hours. Medium was removed each hour for RIA of GH level and fresh medium was added again. After two one hour preincubation periods (P1-P2), the vehicle/peptides were added to two one hour incubations (I3-I4). Peptide activity was calculated as the change in the hormonal level (delta) between I3+I4 and P2. For antagonist activity, the incubation was continued for 2 additional hours (I5-I6) where both the peptide and a stimulator of GH secretion was added and the antagonist activity was calculated as the change in the hormonal level (delta) between I5+I6 and P2. The peptides were assayed in triplicate and the hormone was assayed in duplicate. Each value recorded represents the mean of 6. The GH RIA reagents were distributed by the NIH. Control data was collected from isolated pituitary glands treated with only the corresponding vehicle in the absence of peptide or stimulator. Control stimulated data was collected from isolated pituitary glands treated with stimulator alone in the absence of any peptide.

[3] = target: T2, Ghrelin/GHRP/GHS Receptor; experiment: In vivo GH release in rat after i.v. peptide (serum GH by RIA)
Protocol: For the in vivo assay of GH Release in rat, immature female Sprague Dawley rats were obtained from Charles River from Wilmington, Mass. After arrival they were housed at 25° C. with a 14:10 h light:dark cycle. Water and Purina rat chow were available at libitum. Pups were weaned at 21 days of age.
Immature twenty six day old female Sprague Dawley rats, 3-6 rats per treatment dose, were pretreated with pentobarbital 20 minutes before iv injection of vehicle/peptide or peptide plus stimulator. Injection was made as a 0.1 ml solution. For the non-pentobarbital treated rat assay, peptides were administered iv into the tail vein of conscious rats. All animals were sacrificed by guillotine after iv peptide or vehicle. Trunk blood was collected at +10-15 minutes […], allowed to clot, centrifuged and serum stored until assayed for GH levels by RIA. The GH RIA reagents were distributed by the NIH. Control data was collected from rats treated with only the corresponding vehicle in the absence of peptide or stimulator. Control stimulated data was collected from rats treated with stimulator alone in the absence of any peptide.

[4] = target: T2, Ghrelin/GHRP/GHS Receptor; experiment: GH release from cell culture of pituitary cells; format: cell-based; design: After dispersion, the cells were collected by centrifugation, wash with DMEM and placed into culture well; endogenous in cells; host or cells: dispersed primary rat pituitary cells, 4 days in culture
Protocol: In vitro GH Release-Female rats of the CD-1 strain were housed in a constant temperature room at 24° C. with 14 h light and 10 h darkness. The rats were fed Purina Rat chow and water at libitum. All studies were started between 0800-1000 hours. Pituitaries of mature female Sprague Dawley rats were rapidly removed after decapitation, neurointermediate lobe discarded and then placed in a pH 7.4 buffer. The pituitaries were cut into ˜3-mm pieces and then transferred to a flask containing HEPS buffer with trypsin and incubated at 37° C. Cells were triturated several times during this period. After dispersion, the cells were collected by centrifugation, wash with DMEM and placed into culture well. Cell cultures were maintained for 4 days at 37° with 8% CO2 added to the incubator atmosphere. After 4 days in culture, cells were washed with lactated Ringer's solution adjusted to pH 7.2-7.4 and then vehicle, peptide alone or peptide plus stimulator was added to media. Incubation time was 60-120 minutes after which media was removed from each well for GH determination. The GH RIA reagents were distributed by the NIH. Control data was collected from cell cultures treated with only the corresponding vehicle in the absence of peptide or stimulator. Control stimulated data was collected from cell cultures treated with stimulator alone in the absence of any peptide.

[5] = target: T3, hypothalamic ghrelin receptor (Rattus norvegicus, UniProt O08725); experiment: Spontaneous and ghrelin-stimulated GH secretion after icv ghrelin analogs in adult male rats; format: in vivo; design: from tissue; host or cells: whole animal (adult male rats); conditions: ghrelin analog 10 μg icv, 6-h sampling
Protocol: (§1) In vivo effects were measured on spontaneous and ghrelin-stimulated GH secrtion over a 6-h sampling period, and food intake monitored hourly over a 5-h period and body weight change over 24 h.

[6] = target: T3, hypothalamic ghrelin receptor; experiment: Food intake and body weight change after icv ghrelin analogs in adult male rats; format: in vivo; design: from tissue; host or cells: whole animal (adult male rats); conditions: ghrelin analog 10 μg icv, monitored hourly over 5 h
Protocol: as §1

[7] = peptide antagonist 30 μg/ml + stimulator His-DTrp-Ala-Trp-DPhe-Lys-NH2 10 ng/ml

T2 sequence (O08725 whole entry): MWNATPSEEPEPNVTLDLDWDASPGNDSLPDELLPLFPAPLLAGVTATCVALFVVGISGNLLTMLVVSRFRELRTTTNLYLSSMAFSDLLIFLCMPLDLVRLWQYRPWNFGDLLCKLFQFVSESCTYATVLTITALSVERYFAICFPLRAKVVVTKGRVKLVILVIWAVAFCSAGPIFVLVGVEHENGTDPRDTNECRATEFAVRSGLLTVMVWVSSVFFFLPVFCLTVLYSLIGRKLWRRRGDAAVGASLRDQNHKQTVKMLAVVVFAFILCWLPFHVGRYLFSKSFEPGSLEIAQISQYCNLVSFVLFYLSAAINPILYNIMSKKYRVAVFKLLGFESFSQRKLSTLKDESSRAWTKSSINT
T1 sequence (Q92847 whole entry): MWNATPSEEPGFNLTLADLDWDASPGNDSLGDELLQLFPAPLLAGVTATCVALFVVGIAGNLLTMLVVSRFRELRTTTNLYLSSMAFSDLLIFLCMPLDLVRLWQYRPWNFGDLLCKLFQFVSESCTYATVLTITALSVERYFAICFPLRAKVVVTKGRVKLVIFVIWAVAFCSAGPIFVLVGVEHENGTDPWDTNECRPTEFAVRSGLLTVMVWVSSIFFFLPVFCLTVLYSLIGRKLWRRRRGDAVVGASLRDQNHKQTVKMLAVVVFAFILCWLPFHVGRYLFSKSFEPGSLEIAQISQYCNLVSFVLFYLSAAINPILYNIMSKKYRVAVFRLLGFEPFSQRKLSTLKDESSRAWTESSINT
T3 sequence (O08725 whole entry): as the sequence (O08725 whole entry) above

Molecule: CSCC[C@H](NC(=O)CN)C(=O)N[C@@H](C)C(=O)N[C@H](C)C(=O)N[C@H](Cc1ccc2ccccc2c1)C(=O)N[C@H](CCCCN)C(=O)N[C@@H](Cc1c[nH]c2ccccc12)C(=O)N[C@H](Cc1ccccc1)C(=O)N[C@@H](CCCCN)C(N)=O [#6a, GlyMetAlaDAlaDβNalDLysTrpDPheLysNH2] (HELM PEPTIDE1{G.M.A.[dA].[O=C([C@@H](Cc1ccc2ccccc2c1)N[*:1])[*:2]].[dK].W.[dF].K.[am]}$$$$V2.0; N-terminus assumed)
- IC50 [1]: 0.707 µM
- Ki [1]: 0.395 µM
- % INH, Ghrelin/GHS Antagonist Receptor Activity [1]: 89%

Molecule: CSCC[C@H](NC(=O)CN)C(=O)N[C@@H](C)C(=O)NCC(=O)N[C@@H](CO)C(=O)N[C@@H](Cc1c[nH]c2ccccc12)C(=O)N[C@@H](Cc1ccccc1)C(=O)N[C@@H](CC(C)C)C(=O)N[C@@H](CO)C(=O)N1CCC[C@H]1C(=O)N[C@@H](CCC(=O)O)C(=O)N[C@@H](Cc1c[nH]cn1)C(=O)N[C@@H](CCC(N)=O)C(=O)N[C@@H](CCCNC(=N)N)C(=O)N[C@H](C(=O)N[C@@H](CCC(N)=O)C(=O)N[C@@H](CCC(N)=O)C(=O)N[C@@H](CCCNC(=N)N)C(=O)N[C@@H](CCCCN)C(=O)N[C@@H](CCC(=O)O)C(=O)N[C@@H](CO)C(=O)N[C@@H](CCCCN)C(=O)N[C@@H](CCCCN)C(=O)N1CCC[C@H]1C(=O)N1CCC[C@H]1C(=O)N[C@@H](C)C(=O)N[C@@H](CCCCN)C(=O)N[C@@H](CC(C)C)C(=O)N[C@@H](CCC(N)=O)C(=O)N1CCC[C@H]1C(=O)N[C@@H](CCCNC(=N)N)C(=O)O)C(C)C [#7]
- IC50 [1]: 0.284 µM
- Ki [1]: 0.159 µM
- % INH, Ghrelin/GHS Antagonist Receptor Activity [1]: 86%

Molecule: Y[dW]AW[dF]-NH2 [reference compound]
- Stimulated Control GH release (stimulator *S alone) ([2]; Table 12, *S = Tyr-DTrp-Ala-Trp-DPhe-NH2 0.3 μg/ml): 2218 ± 194 ng/mL

Molecule: Y[dW][dW]FF-NH2 [12-Tyr-DTrp-DTrp-Phe-Phe-NH2]
- Stimulated GH release [2, 7]: -167 ± 157 ng/mL

Molecule: DesaminoTyr-DTrp-Ser-Trp-DPhe-NH2 [10-DesaminoTyr-DTrp-Ser-Trp-DPhe-NH2]
- Stimulated GH release [2, 7]: 3258 ± 682 ng/mL

Molecule: [dA][d2Nal]AW[dF]K-NH2 [reference compound]
- Stimulated Control GH release (stimulator alone) ([3]; DAla-DβNal-Ala-Trp-DPhe-Lys-NH2 0.3 μg, rat, Table 2): 1412 ± 400 ng/mL and 2253 ± 252 ng/mL
- Stimulated Control GH release (stimulator alone) ([3]; DAla-DβNal-Ala-Trp-DPhe-Lys-NH2 1 μg, rat, Table 2): 3214 ± 276 ng/mL and 3105 ± 429 ng/mL and 2406 ± 288 ng/mL and 2825 ± 134 ng/mL and 3104 ± 429 ng/mL
- Stimulated Control GH release (stimulator alone) ([3]; Table 4, Non-Pentobarbital Rats, DAla-DβNal-Ala-Trp-DPhe-Lys-NH2 10 μg): 72 ± 9 ng/mL
- Stimulated Control GH release (stimulator alone) ([3]; Table 4, Pentobarbital Rats, DAla-DβNal-Ala-Trp-DPhe-Lys-NH2 0.3 μg): 5052 ± 511 ng/mL
- Stimulated Control GH release (stimulator alone) ([3]; Table 4, Pentobarbital Rats, DAla-DβNal-Ala-Trp-DPhe-Lys-NH2 1 μg): 4950 ± 98 ng/mL
- Stimulated Control GH release (stimulator alone) ([4]; Table 6, DAla-DβNal-Ala-Trp-DPhe-Lys-NH2 10 ng/ml): 2420 ± 0 ng/mL and 2811 ± 229 ng/mL and 2385 ± 8 ng/mL
- Stimulated Control GH release (stimulator alone) ([4]; Table 9, DAla-DβNal-Ala-Trp-DPhe-Lys-NH2 1 ng/ml): 1232 ± 34 ng/mL
- Stimulated Control GH release (stimulator alone) ([4]; Table 10, DAla-DβNal-Ala-Trp-DPhe-Lys-NH2 1 ng/ml): 905 ± 6 ng/mL and 1153 ± 36 ng/mL and 1216 ± 26 ng/mL and 1461 ± 58 ng/mL and 1016 ± 18 ng/mL and 859 ± 4 ng/mL and 1060 ± 24 ng/mL
- Stimulated Control GH release (stimulator alone) ([4]; Table 11, DAla-DβNal-Ala-Trp-DPhe-Lys-NH2 1 ng/ml): 905 ± 6 ng/mL and 947 ± 11 ng/mL and 947 ± 33 ng/mL and 1016 ± 18 ng/mL

Molecule: Gly-Met-Ala-Gly-Ser-(Dap-Palmityl)-Phe-Leu-Ser-Pro-Glu-His-NH2 (GMAGS[Dap(palmityl)]FLSPEH-NH2) [#6]
- spontaneous growth hormone secretion / plasma GH levels [5]: did not inhibit
- (cumulative) food intake [6]: did not inhibit GH secretion or decreased food intake

Molecule: H[dW][dK]W[dF]K-NH2 [6-His-DTrp-DLys-Trp-DPhe-Lys-NH2]
- Stimulated GH release ([2]; peptide antagonist 1 μg/ml + stimulator His-DTrp-Ala-Trp-DPhe-Lys-NH2 10 ng/ml): 324 ± 181 ng/mL

Molecule: CSCC[C@H](NC(=O)CN)C(=O)N[C@@H](C)C(=O)N[C@H](C)C(=O)N[C@H](Cc1ccc2ccccc2c1)C(=O)N[C@@H](C)C(=O)N[C@@H](Cc1c[nH]c2ccccc12)C(=O)N[C@H](Cc1ccccc1)C(=O)N[C@@H](CCCCN)C(N)=O [#5, GlyMetAlaDAlaDβNalAlaTrpDPheLysNH2] (HELM PEPTIDE1{G.M.A.[dA].[O=C([C@@H](Cc1ccc2ccccc2c1)N[*:1])[*:2]].A.W.[dF].K.[am]}$$$$V2.0; N-terminus assumed)
- IC50 [1]: 0.296 µM
- Ki [1]: 0.166 µM
- % INH, Ghrelin/GHS Antagonist Receptor Activity [1]: 94%
